Reference: the supplement of paper PMC10307832

Key:
Assay in all cases: relative viability (nuclei count vs DMSO), 5 days (fraction); higher = more cells survive
Pemetrexed + Dasatinib = compound: Nc1nc2[nH]cc(CCc3ccc(C(=O)N[C@@H](CCC(=O)O)C(=O)O)cc3)c2c(=O)[nH]1 [Pemetrexed] + Cc1nc(Nc2ncc(C(=O)Nc3c(C)cccc3Cl)s2)cc(N2CCN(CCO)CC2)n1 [Dasatinib] (partner 0.075 µM)
Method in brief: (§1)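 Lung cancer cell lines were seeded in 1536-well plates and dosed by pin tool the next day, with either a single drug or a fixed anchor-drug dose combined with five library-drug doses (not always all listed) spaced in √10 steps. Five days later, one step fixed the cells and stained their nuclei (final 0.05% Triton X-100, 1% formaldehyde, 1 ug/ml Hoechst), and nuclei were counted on 4× images. Relative viability is the nuclei count in treated wells divided by the count in vehicle wells, and each value is the median of duplicate plates.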

Idelalisib + Navitoclax = compound: CC[C@H](Nc1ncnc2[nH]cnc12)c1nc2cccc(F)c2c(=O)n1-c1ccccc1 [Idelalisib] + CC1(C)CCC(c2ccc(Cl)cc2)=C(CN2CCN(c3ccc(C(=O)NS(=O)(=O)c4ccc(N[C@H](CCN5CCOCC5)CSc5ccccc5)c(S(=O)(=O)C(F)(F)F)c4)cc3)CC2)C1 [Navitoclax] (partner 0.5 µM)
Method in brief: as §1

Pemetrexed + Bortezomib = compound: Nc1nc2[nH]cc(CCc3ccc(C(=O)N[C@@H](CCC(=O)O)C(=O)O)cc3)c2c(=O)[nH]1 [Pemetrexed] + CC(C)C[C@H](NC(=O)[C@H](Cc1ccccc1)NC(=O)c1cnccn1)B(O)O [Bortezomib] (partner 0.002 µM)
Method in brief: as §1

Pemetrexed + Olaparib = compound: Nc1nc2[nH]cc(CCc3ccc(C(=O)N[C@@H](CCC(=O)O)C(=O)O)cc3)c2c(=O)[nH]1 [Pemetrexed] + O=C(c1cc(Cc2n[nH]c(=O)c3ccccc23)ccc1F)N1CCN(C(=O)C2CC2)CC1 [Olaparib] (partner 8 µM)
Method in brief: as §1

## UMC-11
Pemetrexed + Dasatinib; first compound 0.002 µM
  relative viability: 0.483
Pemetrexed + Dasatinib; first compound 0.006325 µM
  relative viability: 0.451
Pemetrexed + Dasatinib; first compound 0.02 µM
  relative viability: 0.468
Pemetrexed + Dasatinib; first compound 0.06325 µM
  relative viability: 0.442
Pemetrexed + Dasatinib; first compound 0.2 µM
  relative viability: 0.474
Idelalisib + Navitoclax; first compound 0.04 µM
  relative viability: 0.366
Idelalisib + Navitoclax; first compound 0.1265 µM
  relative viability: 0.326
Idelalisib + Navitoclax; first compound 0.4 µM
  relative viability: 0.274
Idelalisib + Navitoclax; first compound 1.265 µM
  relative viability: 0.291
Idelalisib + Navitoclax; first compound 4 µM
  relative viability: 0.336
Pemetrexed + Bortezomib; first compound 0.002 µM
  relative viability: 0.573
Pemetrexed + Bortezomib; first compound 0.006325 µM
  relative viability: 0.639
Pemetrexed + Bortezomib; first compound 0.02 µM
  relative viability: 0.682
Pemetrexed + Bortezomib; first compound 0.06325 µM
  relative viability: 0.991
Pemetrexed + Bortezomib; first compound 0.2 µM
  relative viability: 0.698
Pemetrexed + Olaparib; first compound 0.002 µM
  relative viability: 0.361
Pemetrexed + Olaparib; first compound 0.006325 µM
  relative viability: 0.374
Pemetrexed + Olaparib; first compound 0.02 µM
  relative viability: 0.999
Pemetrexed + Olaparib; first compound 0.06325 µM
  relative viability: 0.441
Pemetrexed + Olaparib; first compound 0.2 µM
  relative viability: 0.358
